Reference: US6620820B2, “Inhibitors of bone reabsorption and antagonists of vitronectin receptors” (Hoechst Aktiengesellschaft, priority 1996, dated 2003)

biological target: T1, human vitronectin receptor (VnR) αVβ3 (Homo sapiens, UniProt P05106+P06756); assay: Inhibition of the binding of Kistrin to human vitronectin receptor (VnR) αVβ3: ELISA test (Kistrin/VnR); conditions: plates coated with Kistrin, test method 2
T1 construct: Human vitronectin receptor is isolated from the human placenta using the method of Pytela et al; from tissue; host or cells: human placenta (alternatively 293 cells cotransfected with αV and β3 DNA)
Method: Nunc Maxisorb 96-well microtiter plates are coated, at 4° C. overnight, with a solution of human vitronectin (0.002 mg/ml, 0.05 ml/well) in PBS (phosphate-buffered sodium chloride solution). The plates are washed twice with PBS/0.05% Tween 20 and blocked by incubating them (for 60 min) with bovine serum albumin (BSA, 0.5%, RIA grade or better) in tris-HCl (50 mM), NaCl (100 mM), MgCl2 (1 mM), CaCl2 (1 mM), MnCl2 (1 mM), pH 7. Solutions of known inhibitors and of the test substances, in concentrations of 2×10^−12−2×10^−6 mol/l, are prepared in assay buffer [BSA (0.5%, RIA grade or better) in tris-HCl (50 mM/l), NaCl (100 mM), MgCl2 (1 mM), CaCl2 (1 mM), MnCl2 (1 mM), pH 7]. The blocked plates are emptied and in each case 0.025 ml of this solution, which contains a defined concentration (from 2×10^−12 to 2×10^−6) of either a known inhibitor or a test substance, is added to each well. 0.025 ml of a solution of the vitronectin receptor in the test buffer (0.03 mg/ml) is pipetted into each well of the plate and the plate is then incubated at room temperature on a shaker for 60-180 min. In the meantime, a solution (6 ml/plate) of a murine monoclonal antibody which is specific for the β3 subunit of the vitronectin receptor is prepared in the assay buffer (0.0015 mg/ml). A second rabbit antibody, which represents an anti-mouse Fc HRP antibody conjugate, is added to this solution (0.001 ml of stock solution/6 ml of the murine mono-clonal anti-β3 antibody solution) and this mixture of the murine anti-β3 antibody and the rabbit anti-mouse Fc HRP antibody conjugate is allowed to incubate while the receptor/inhibitor incubation is in progress. The test plates are washed 4 times with PBS solution containing 0.05% Tween-20 and 0.05 ml of the antibody mixture is in each case pipetted into each well of the plate, which is then incubated for 60-180 min. The plate is washed 4 times with PBS/0.05% Tween-20 and then developed with 0.05 ml/well of a PBS solution which contains 0.67 mg/ml o-phenylenediamine and 0.012% H2O2. Alternatively, o-phenylenediamine can be used in a buffer (pH 5) which contains Na3PO4 (50 mM) and citric acid (0.22 mM). The color development is stopped with 1N H2SO4 (0.05 ml/well). The absorption of each well is measured at 492-405 nm and the data are evaluated using standard methods.
Inhibition of the binding of Kistrin to human vitronectin receptor (VnR) αVβ3: ELISA test
(In the listing of the test results, test method 2 is abbreviated to Kistrin/VnR)
1. Purification of Kistrin
Kistrin is purified using the methods of Dennis et al., as described in Proc. Natl. Acad. Sci. USA 1989, 87, 2471-2475 and PROTEINS: Structure, Function and Genetics 1993, 15, 312-321.
2. Purification of human vitronectin receptor (αVβ3) see test method 1.
3. Monoclonal antibodies see test method 1.
The ability of substances to inhibit the binding of Kistrin to the vitronectin receptor can be elucidated using an ELISA test. For this purpose, Nunc 96-well microtiter plates are coated with a solution of Kistrin (0.002 mg/ml) in accordance with the method of Dennis et al., as described in PROTEINS: Structure, Function and Genetics 1993, 15, 312-321. The subsequent experimental implementation of the ELISA test is as described in test method1, item 4.

T1 sequence (P06756 31-889 limits assumed): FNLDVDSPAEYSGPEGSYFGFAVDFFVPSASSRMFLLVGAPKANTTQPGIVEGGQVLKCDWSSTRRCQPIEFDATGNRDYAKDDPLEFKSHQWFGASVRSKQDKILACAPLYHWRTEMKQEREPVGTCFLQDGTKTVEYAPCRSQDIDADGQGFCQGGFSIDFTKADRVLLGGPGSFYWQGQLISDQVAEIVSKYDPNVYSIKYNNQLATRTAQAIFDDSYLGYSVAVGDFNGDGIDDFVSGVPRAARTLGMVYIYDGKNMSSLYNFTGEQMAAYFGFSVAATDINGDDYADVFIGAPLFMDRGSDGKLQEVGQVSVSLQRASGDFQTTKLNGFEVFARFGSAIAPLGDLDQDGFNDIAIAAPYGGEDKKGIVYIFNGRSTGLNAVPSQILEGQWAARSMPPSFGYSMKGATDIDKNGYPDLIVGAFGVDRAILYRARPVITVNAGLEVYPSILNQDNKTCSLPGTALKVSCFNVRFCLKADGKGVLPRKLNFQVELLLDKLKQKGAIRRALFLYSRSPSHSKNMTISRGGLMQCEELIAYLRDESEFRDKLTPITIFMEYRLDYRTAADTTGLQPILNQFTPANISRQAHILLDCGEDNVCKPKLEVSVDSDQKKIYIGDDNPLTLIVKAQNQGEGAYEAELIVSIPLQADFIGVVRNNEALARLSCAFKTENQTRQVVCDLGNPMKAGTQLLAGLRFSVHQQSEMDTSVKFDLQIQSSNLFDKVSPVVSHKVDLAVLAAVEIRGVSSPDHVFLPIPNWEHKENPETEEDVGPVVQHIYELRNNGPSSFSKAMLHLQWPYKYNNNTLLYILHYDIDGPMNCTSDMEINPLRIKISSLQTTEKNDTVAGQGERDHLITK
T1 sequence (P06756 891-1048 partner limits assumed): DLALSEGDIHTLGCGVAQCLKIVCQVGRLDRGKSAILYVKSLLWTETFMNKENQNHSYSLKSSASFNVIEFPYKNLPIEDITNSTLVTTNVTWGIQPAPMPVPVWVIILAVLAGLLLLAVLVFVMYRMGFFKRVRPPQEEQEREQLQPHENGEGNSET
T1 sequence (P05106 27-788): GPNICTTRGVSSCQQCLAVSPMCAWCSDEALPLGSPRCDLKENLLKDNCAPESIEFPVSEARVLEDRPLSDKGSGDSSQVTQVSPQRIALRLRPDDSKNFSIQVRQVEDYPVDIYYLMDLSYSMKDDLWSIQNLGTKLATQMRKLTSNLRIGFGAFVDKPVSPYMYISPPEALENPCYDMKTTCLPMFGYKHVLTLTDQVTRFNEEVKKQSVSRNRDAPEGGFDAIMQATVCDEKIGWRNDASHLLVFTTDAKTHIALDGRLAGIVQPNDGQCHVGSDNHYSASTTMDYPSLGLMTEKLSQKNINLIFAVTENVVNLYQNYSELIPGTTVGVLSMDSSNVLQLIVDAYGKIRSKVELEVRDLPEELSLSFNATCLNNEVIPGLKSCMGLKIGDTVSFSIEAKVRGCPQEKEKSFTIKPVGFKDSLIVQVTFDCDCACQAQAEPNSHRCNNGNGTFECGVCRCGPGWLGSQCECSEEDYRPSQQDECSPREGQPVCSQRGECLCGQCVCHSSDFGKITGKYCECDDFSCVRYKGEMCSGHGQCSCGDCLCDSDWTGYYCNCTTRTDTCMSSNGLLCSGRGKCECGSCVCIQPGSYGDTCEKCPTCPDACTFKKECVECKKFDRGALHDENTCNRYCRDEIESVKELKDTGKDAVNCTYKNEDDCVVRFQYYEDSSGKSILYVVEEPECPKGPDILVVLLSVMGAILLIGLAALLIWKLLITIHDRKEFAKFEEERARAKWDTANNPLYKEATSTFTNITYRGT

| IC50 | Compound |
| --- | --- |
| 20 nM | O=C(CN1C(=O)N[C@@H](CCCNC2=NCCN2)C1=O)NC[C@H](NC(=O)OCc1ccccc1)C(=O)O [Example 1, (2S)-Benzoylcarbonylamino-3-[2-((4S)-(3-(4,5dihydro-1H-imidazol-2-ylamino)propyl)-2,5-dioxoimidazolidin-1-yl)acetylamino]propionic Acid] |
| 360 nM | N=C(N)NC(=O)NC[C@@H]1NC(=O)N(CC(=O)NC[C@H](NC(=O)OCc2ccccc2)C(=O)O)C1=O [Example 3, (2S)-Benzyloxycarbonylamino-3-[((4S)-(guanidinoacylaminomethyl)-2,5-dioxoimidazolidin-1-yl)acetylamino]propionic Acid] |
| 1660 nM | O=C(CN1C(=O)N[C@@H](CCCNc2ncccn2)C1=O)NC[C@H](NC(=O)OCc1ccccc1)C(=O)O [Example 4, (2S)-Benzyloxycarbonylamino-3-[((4S)-(3-(2-pyrimidylamino)propyl)-2,5-dioxoimidazolidin-1-yl)acetylamino]propionic Acid] |
| 40 nM | O=C(CN1C(=O)N[C@@H](CCCNc2nc3ccccc3[nH]2)C1=O)NC[C@H](NC(=O)OCc1ccccc1)C(=O)O [Example 5, (2S)-Benzyloxycarbonylamino-3-[((4S)-(3-(benzimidazolyl-2-amino)-propyl)-2,5-dioxoimidazolidin-1-yl)acetylamino]propionic Acid] |
| 580 nM | O=C(CN1C(=O)N[C@@H](CC(=O)NNC2=NCCN2)C1=O)NC[C@H](NC(=O)OCc1ccccc1)C(=O)O [Example 7, (2S)-Benzyloxycarbonylamino-3-[2-((4S)-(N′-(4,5-dihydro-1H-imidazol-2-yl)-hydrazinocarbonylmethyl]-2,5-dioxoimidazolidin-1-yl)acetylamino]propionic Acid] |
| 130 nM | O=C(CN1C(=O)N[C@@H](CC(=O)NNC2=NCCCN2)C1=O)NC[C@H](NC(=O)OCc1ccccc1)C(=O)O [Example 8, (2S)-Benzyloxycarbonylamino-3-[2-(2,5-dioxo-(4S)-(N′-(1,4,5,6-tetrahydro-pyrimidin-2-yl)hydrazinocarbonylmethyl)imidazolidin-1-yl)acetylamino]propionic Acid] |
| 20 nM | N=C(N)NC(=O)CC[C@@H]1NC(=O)N(CC(=O)NC[C@H](NC(=O)OCc2ccccc2)C(=O)O)C1=O [Example 19, (2S)-Benzyloxycarbonylamino-3-[2-((4S)-(3-guanidino-3-oxopropyl) -2,5-dioxoimidazolidin-1-yl)acetylamino]propionic Acid] |

| Compound | IC50 |
| --- | --- |
| O=C(CN1C(=O)N[C@@H](CCc2nc3ccccc3[nH]2)C1=O)NC[C@H](NC(=O)OCc1ccccc1)C(=O)O [Example 18] | 810 nM |

biological target: T1, human vitronectin receptor (VnR) αVβ3; assay: Inhibition of the binding of human vitronectin (Vn) to human vitronectin receptor (VnR) αVβ3: ELISA test (Vn/VnR); conditions: plates coated with human vitronectin, test method 1
Text: Inhibition of the binding of human vitronectin (Vn) to human vitronectin receptor (VnR) αVβ3: ELISA-Test.
(In the listing of the test results, test method 1 is abbreviated to Vn/VnR)
1. Purification of human vitronectin
Human vitronectin is isolated from human plasma and purified by affinity chromatography using the method of Yatohyo et al., Cell Structure and Function, 1988, 23, 281-292.
2. Purification of human vitronectin receptor (αVβ3)
Human vitronectin receptor is isolated from the human placenta using the method of Pytela et al., Methods Enzymol. 1987, 144, 475. Human vitronectin receptor αVβ3 can also be isolated from some cell lines (for example from 293 cells, a human embryonic kidney cell line) which are cotransfected with DNA sequences for the two subunits, αV and β3, of the vitronectin receptor. The subunits are extracted with octylglycoside and subsequently chromatographed on concanavalin A, heparin-Sepharose and S-300. […]
Nunc Maxisorb 96-well microtiter plates are coated, at 4° C. overnight, with a solution of human vitronectin (0.002 mg/ml, 0.05 ml/well) in PBS (phosphate-buffered sodium chloride solution). […] The absorption of each well is measured at 492-405 nm and the data are evaluated using standard methods.

| IC50 | Compound |
| --- | --- |
| 8 nM | O=C(CN1C(=O)N[C@@H](CCCNC2=NCCN2)C1=O)NC[C@H](NC(=O)OCc1ccccc1)C(=O)O [Example 1, (2S)-Benzoylcarbonylamino-3-[2-((4S)-(3-(4,5dihydro-1H-imidazol-2-ylamino)propyl)-2,5-dioxoimidazolidin-1-yl)acetylamino]propionic Acid] |
